From US20080207502A1, “Anti-Angiogenic Peptides and Methods of Use Thereof” (SOPHERION THERAPEUTICS, INC., priority 2004, published 2008)

Experiments:
[1] = tested on: human dermal microvasculature endothelial cells; assay: VEGF mediated survival/proliferation in human dermal microvasculature endothelial cells; format: cell-based; details: 30, 100, and 200 μg/ml, FIG. 8
Experimental: (§1) The anti-angiogenic activities of the peptides were tested by measuring the level of inhibition of VEGF and bFGF mediated survival/proliferation of Bovine Retinal Endothelial Cells (BRE), Human Dermal Microvasculature Endothelial Cells, and Human Umbilical Vein Endothelial Cells, all of which are standard cell lines used to test anti-angiogenic compounds.
(§2) In all cases, after 72 hours incubation, the amount of live cells in each well was measured with the WST1 assay (Roche).
(§3) In a further experiment, the anti-angiogenic activity of peptide ST100,061 (SEQ ID NO.: 3), a derivative of ST100,032 (SEQ ID NO.: 1), at concentrations of 30, 100, and 200 μg/ml was tested by measuring the level of inhibition of VEGF and bFGF mediated survival/proliferation in human dermal microvasculature endothelial cells.

[2] = tested on: B16 melanoma tumor; assay: Subcutaneous B16 melanoma tumor model in vivo; set-up: species or system mouse; details: 20 mg/kg daily IP, vs untreated controls, FIG. 12
Experimental: Because of the importance of the angiogenic process for tumorigenesis, miniproteins as described herein, were hypothesized to show good anti-tumor activity. The peptides of the invention were tested in an in vivo model of anti-tumor activity. This model compares the growth of sub cutaneous B16 melanoma tumor in vivo either untreated or treated with various amount of miniproteins described in this application. This model is widely accepted in the art as a model to test the anti-tumor activity of compounds that inhibit tumor growth because they have anti-angiogenic activity.
Male C57BL/6 mice were obtained with a mean body weight of 20±2 g. Mouse B16-F1 melanoma cells were implanted subcutaneously (5×10^5 cell per animal). Peptides (formulated in water) were administered ip daily at the amount indicated starting the day after cells injection. In general, tumors became palpable around 9 days after injection of cells. Tumor were then measured every 2 days.

[3] = tested on: human dermal microvasculature endothelial cells; assay: bFGF mediated survival/proliferation in human dermal microvasculature endothelial cells; format: cell-based; details: 30, 100, and 200 μg/ml, FIG. 8
Experimental: as §1, §2, §3

[4] = Biological activity of D-amino acid versions of ST100,038 (assay not specified); details: ST100,045 tested against ST100,059 and a control
Experimental: D-amino acid peptides can be made by generating a D-amino acid peptide with the same sequence as a L-amino acid peptide or by preparing a retro inverso form of a peptide. ST100,045 (SEQ ID NO.: 31) has the same sequence as ST100,038 (SEQ ID NO.: 29) was tested against ST100,059 (SEQ ID NO.: 30) which is the retro inverso version of ST100,038 and a control.

[5] = tested on: Bovine Retinal Endothelial Cells (BRE); assay: VEGF-mediated survival/proliferation of BRE cells (WST1); format: cell-based; details: increasing doses, FIG. 5
Experimental: as §1
Bovine retinal endothelial (BRE) cells were maintained in Cambrex EG2 media. For non-adherent cell assays, on day one cells were starved for either 6 hours or overnight, then trypsinized and plated in 96-well plates in 100 μl of Optimem plus 1% fetal bovine serum (FBS). One hundred μl of Optimem plus 1% FBS was added to the wells containing, where appropriate, VEGF to a final concentration of 25 ng/ml, and the various peptides to final concentrations as described. For adherent cells, cells were plated in 96-well plates in complete media, allowed to adhere overnight, washed in starvation media (Optimem plus 1% FBS) and then starved during the day. At the end of the day, 100 μl of Optimem plus 1% FBS was added to the wells containing, where appropriate, VEGF to a final concentration of 25 ng/ml and the various peptides to final concentrations as described.
as §2

[6] = tested on: RPMI-8226 human myeloma xenografts; assay: RPMI-8226 human myeloma subcutaneous xenograft model in scid mice; format: in vivo; details: vs untreated controls, FIG. 16
Experimental: Anti-tumor efficacy of test peptides was evaluated against RPMI-8226 human myeloma xenografts implanted subcutaneously (sc) in severe compromised immunodeficient (scid) mice.
Studies generally consisted of randomly-assigned groups of 8 or 10 mice per group, which were implanted sc with myeloma fragments (30-40 mg). In addition to groups tested with test peptides, studies usually included a vehicle-treated control group and a positive control group treated with an agent known to be active in the RPMI-8226 model. In one type of schedule, mice were treated IP with either vehicle or test peptides starting one day after tumor implantation (implantation day defined as Day 0). Test peptides and vehicle were generally administered IP daily for 3-4 weeks.
Dosing solutions of the test peptides were prepared weekly and kept at −20° C. between injections. […] Each tumor was measured by caliper in two dimensions and converted to tumor mass using the formula for a prolate ellipsoid (a X b^2/2), where a is the longer dimension and b is the smaller dimension, and assuming unit density (1 mm^3=1 mg). Tumor measurements were recorded twice weekly. Body weights were also recorded twice weekly. Anti-tumor activity was assessed by the delay in tumor growth of the treated groups in comparison to the vehicle-treated control group, partial and complete regressions, and tumor-free survivors. […]

[7] = Heparin binding activity by liquid chromatography on Hi Trap Heparin HP column (NaCl elution); details: step gradient 500-1000 mM NaCl in 10 mM NaH2PO4 pH 7
Source text: Liquid chromatography was used to determine the relative levels of heparin binding activity of the individual heparin binding domains and of the anti-angiogenic miniproteins that contains them. In this assay, the strength of the heparin binding activity is proportional to the amount of NaCl that is required to elute the peptide bound to the heparin column. Peptides with low binding activity are eluted with lower NaCl concentration, whereas higher concentrations of NaCl are required for peptides with higher binding activity.
Hi Trap Heparin HP column (1 ml, Amersham Biosciences) was equilibrated with 10 column volumes (CV) of equilibration (EQ) buffer=10 mM NaH2PO4pH 7. All buffers were loaded onto columns via syringes. 500 μl fractions are collected (flow rate=1 ml/minute). 500 μg of peptide (1 mg/ml, resuspended in EQ buffer) was added to each column and the flow through was collected for analysis. The columns were then washed with 3 CV of EQ buffer. Peptides are then eluted with a step gradient of 500, 625, 750, 875 mM NaCl in EQ buffer, 2 CV per each step. A final step of 3 CV of 1000 mM NaCl in EQ buffer was collected in 500 μl fractions. The A210 nm was measured using EQ and elution buffers as blanks.

[8] = tested on: mouse leukemia L1210 cells; assay: Tumor cell proliferation (WST-1), L1210; format: cell-based; details: FIG. 11
Experimental: Peptides to be tested were prepared at a stock concentration of 10 mM in sterile phosphate buffered saline. Cancer cell lines obtained from the American Type Culture Collection (MG-63, HT1080, A498, BxPC3, 786-0, PC-3, B16F1, B16F10, P388D1, Jurkat, MOLT4, THP-1, U-937, L1210, RPMI 8226, NCI H929, U266B1, K562) were cultured under appropriate conditions as described in the literature. Cell culture media and reagents were obtained from ATCC (Manassas, Va.), Invitrogen (Carlsbad, Calif.) or Mediatech (Herndon, Va.). Exponentially growing cultures were used for cell proliferation assays. Adherent cells were plated at a concentration of 100000 cells per milliter in growth media overnight (18-24 h) and treated the next day in a low serum media (growth media with 1% FBS for MG-63, HT1080, A498, BxPC3, PC-3, B16F1, B16F10. 786-0 cells were treated in media with 5% FBS). Suspension cell lines (P388D1, Jurkat, MOLT4, THP-1, U-937, L1210, RPMI 8226, NCI H929, U266B1, and K562) were diluted to a concentration of 100,000 cells per ml and treated on the same day with peptides. Peptides were diluted in treatment media and cells were treated for 48 or 72 hours depending on the cell line. Each dose was tested in triplicate for each experiment, and experiments were repeated for a minimum of three discrete times. After incubation, the relative number of cells was determined using WST-1 (Roche Applied Science). A 9.5 μl aliquot of WST-1 was added to each well. The plate was immediately read at 440 nm using a Bio-Tek PowerWave XS microplate reader, incubated for 2-3 hours at 37° C. and then read again. Cell proliferation was determined as the percent of the control cell proliferation. The absorbance of each well at time 0 was subtracted from the value of the final reading. Afterwards the blank values were averaged and subtracted from each test and control value. Finally, each test absorbance was divided by the average of the control absorbances and multiplied by 100 to obtain the percent of control. […]

[9] = tested on: L1210 murine leukemia; assay: L1210 murine leukemia intravenous model in vivo; set-up: species or system mouse; details: dosed IP, DBA/2 mice, FIG. 15a
Experimental: Antitumor activity of test peptides, administered intraperitoneally (IP), were evaluated against L1210 murine leukemia cells implanted intravenously (IV) in DBA/2 mice.
Studies generally consisted of randomly-assigned groups of 8 mice per group, which were inoculated IV with 1×10^5 cells per mouse from an in vivo leukemia cell line. In addition to groups tested with test peptides, studies usually included a vehicle-treated control group and a positive control group treated with an agent known to be active in the L1210 leukemia model. Starting one day after tumor inoculation (inoculation day defined as Day 0), mice were treated IP with either vehicle or test peptides in various schedules. Generally this consisted of treatment every other day for approximately 1 week (e.g., Days 1, 3, 5 and 7). A positive agent (e.g., cyclophosphamide) was usually given as a single IP injection on Day 1. All dosing solutions were prepared on each day of treatment. Survival was monitored daily and body weights were measured twice weekly. Anti-tumor activity was assessed by the increase in lifespan of the treated groups in comparison to the vehicle-treated control group. Studies with the L1210 leukemia model were limited to 30 days.

[10] = tested on: Human Umbilical Vein Endothelial Cells; assay: bFGF-mediated survival/proliferation of human umbilical vein endothelial cells (WST1); format: cell-based
Experimental: as §1
Human umbilical cord endothelial (HUVEC) cells were maintained in Cambrex EGM-2MV media. On day one, cells were starved overnight in 1% FBS in M200 media (Cascade Biologicals). The morning after, the media were replaced with serum-free media (control) or media containing 25 ng/ml of human VEGF165 and the various peptides to final concentrations as described.
as §2

Row | Sequence | inhibition of VEGF mediated survival/proliferation [1] | inhibition of tumor growth [2] | inhibition of bFGF mediated survival/proliferation [3] | biologically active [4] | inhibition of VEGF stimulation [5] | inhibition of tumor growth ([6]; 100 mg/kg daily IP) | [NaCl] for elution [7] [mM] | blocked cell proliferation or induced cell death [8] | mice (cured mice) survived longer than 30 days [9] | survival [9] | inhibition of bFGF mediated survival ([10]; compared with ST100,061, FIG. 9) | inhibition of bFGF mediated survival ([10]; comparison of several peptides, FIG. 10) | inhibition of tumor growth ([6]; 25 mg/kg daily IP)
1 | PYDGRGDSVVYGLRKKKAARGRRAARGRR (listed as Homo sapiens) [ST100,061, a derivative of ST100,032] | effective in inhibiting both VEGF and bFGF | may be less active | effective in inhibiting both VEGF and bFGF |  |  |  |  |  |  |  |  |  | 
2 | PSQSSHPPLSTA (listed as Homo sapiens) [ST100,059] |  | clearly inhibit tumor growth |  | biologically active | inhibited with increasing doses | does not inhibit tumor growth | 0 |  |  |  |  |  | 
3 | RRGRAARRGRAAKKKRLGYVVSDGRGDYP [ST100,064] |  |  |  |  |  |  |  | able to block cell proliferation and induce cell death | Sixty to eighty percent | statistically significant increases in survival | as effectively as ST100,061 | the most active in inhibiting bFGF stimulation | able to inhibit tumor growth
